Data on one compound can be found in patent US7767670B2, “Substituted 3-carboxamido isoxazoles as kinase modulators” (Ambit Biosciences Corporation, priority 2003, dated 2010).

This test deals with T1, MKNK2 (Homo sapiens, UniProt Q9HBH9).
T1 construct: made in house; host or cells: T7 bacteriophage display
The test can be described thus: Binding constant (Kd) measurement, phage-displayed kinase competition binding assay. Particulars: immobilized ATP site ligand competition, read-out: activity towards the target (Kd). An excerpt:
Binding Constant (Kd) Measurements for Small-Molecule-Kinase Interactions

Where only a bound is given, the exact number is not on record here.

T1 sequence (Q9HBH9 whole entry): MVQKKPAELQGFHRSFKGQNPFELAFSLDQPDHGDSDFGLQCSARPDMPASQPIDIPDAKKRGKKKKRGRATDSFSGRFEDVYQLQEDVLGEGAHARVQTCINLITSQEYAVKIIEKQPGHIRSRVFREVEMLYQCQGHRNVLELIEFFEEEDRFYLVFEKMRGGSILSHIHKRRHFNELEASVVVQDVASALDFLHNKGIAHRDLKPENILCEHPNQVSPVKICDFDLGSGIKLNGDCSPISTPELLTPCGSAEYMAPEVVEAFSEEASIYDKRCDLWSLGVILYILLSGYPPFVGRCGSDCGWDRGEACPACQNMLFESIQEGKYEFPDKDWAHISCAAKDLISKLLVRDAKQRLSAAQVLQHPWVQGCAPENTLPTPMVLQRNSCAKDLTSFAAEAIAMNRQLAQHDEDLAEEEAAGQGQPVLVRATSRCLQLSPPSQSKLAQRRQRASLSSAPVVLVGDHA

For the compound `CC(C)(C)c1cc(NC(=O)Cc2ccc(NC(=O)c3ccc4cnccc4n3)cc2)no1` [Compound F2], the Kd was less than 50 nM.

In general, Kd refers to the constant that tells how readily two partners part at equilibrium.
